Data reported in patent US20120269725A1, “TARGETED RADIOLABELED COMPOUNDS AND THEIR USE FOR THE TREATMENT AND DIAGNOSIS OF CANCER” (priority 2009, published 2012).

Assays:
[1] = system: subcutaneous LS174T tumors (human colorectal adenocarcinoma); assay: Biodistribution, clearance and planar imaging in athymic mice bearing subcutaneous LS174T xenografts; type: in vivo, athymic NCr-nu/nu mice; details: for tumor uptake and retention, times higher than parent drug ^131IUdR: co-injected ^131IUdR
Experimental: The in vivo properties and pharmacology of several compounds of the present invention were initially tested in athymic mice bearing subcutaneous LS174T tumors (human colorectal adenocarcinoma), which have several desirable properties such as rapid growth when implanted subcutaneously (SQ), good vascularization and the availability of considerable historical data for the parent compound IUdR. The clearance rates from blood, tumor, and associated organs were analyzed to determine the structure-pharmacokinetics relationship. The first compounds studied were 6b-fast and 6b-slow. Four-to-six-weeks old female athymic NCr-nu/nu mice (NCI-Frederic, Md., USA) were allowed to acclimate in Applicants' facility after delivery for no less than 5 days. All protocols involving animals were approved by the University of Nebraska Institutional Animal Care and Use Committee. Mice were housed in microisolator cages with free access to sterilized standard rodent diet and water. LS174T cells in 0.1 mL of serum-free medium were implanted SQ at 5×10^6 cells/mouse. One week later identification transponders were implanted, also SQ. Body weights and tumor sizes were monitored twice weekly, and approximately 10 days after the cell implant, mice were randomized for biodistribution studies.
Each of the two isomers, 6b-fast and 6b-slow, was tested independently in separate groups of mice. The comparison to the parent compound, IUdR, was made by co-injecting ^131IUdR with a particular ^125I-labeled diastereomer. Compounds were administered intravenously (IV) via a tail vein.
Biodistribution was conducted at 1 h, 4 h, 24 and 48 h after the administration of radiolabeled compounds (n=6 per time point). The injection doses contained approximately 1 μCi (37 kBq) ^131IUdR and 5 μCi (185 kBq) ^125I-labeled 6b-fast or 6b-slow dissolved in 0.2 mL phosphate buffered saline containing 0.1% bovine serum albumin, pH 7.2 (PBS). All syringes were weighted after loading with the compound solution and immediately after the injection to determine the weight of the injected dose. Triplicate standards of the injected dose were prepared in PBS and counted in a gamma counter just before the beginning of the experiment. The radioactive content of these standards was also determined alongside all tissues after the necropsy to correct the tissue uptake for the decay of the radioisotope. Blood, liver, spleen, heart, lungs, kidneys, brain, tumor and tail were collected during necropsy. Tissues were rinsed in ice-cold saline, patted dry and weighed. The tail was collected to validate the quality of the IV injections.
FIG. 7 presents whole body images for a typical time course distribution (24 h, 48 h, and 72 h) of 6b administered as a diastereomeric mixture in LS174T-bearing athymic mice. The images were acquired 1, 2, and 3 days after the administration of the compound. […] It is also apparent that based on pharmacokinetics, the use of these compounds can be tailored to a specific malignancy and its anatomical location.

IP OVCAR-3 tumors = assay: Pilot therapy of IP OVCAR-3 tumors in athymic mice; type: in vivo
Description: In pilot therapy experiments, the effects of unmodified ^125IUdR on the growth of IP OVCAR-3 tumors were compared to the therapeutic effects of the 6b diastereomeric mixture and 7b diastereomeric mixture. The tumor model used in this study, OVCAR-3 cell line, was established from the malignant ascites of a patient with progressive adenocarcinoma of the ovary after many types of chemotherapy including cyclophosphamide, adriamycin, and cisplatin. OVCAR-3 is resistant in vitro to clinically relevant concentrations of adriamycin, melphalan, and cisplatin (Hamilton T C, Young R C, Louie K G, Behrens B C, McKoy W M, Grotzinger K R, Ozols R F. Characterization of a xenograft model of human ovarian carcinoma which produces ascites and intraabdominal carcinomatosis in mice. Cancer Res. 1984; 44:5286-90.). In immunodeficient mice, IP injected OVCAR-3 cells produce malignant ascites, peritoneal carcinomatosis, and serosal and visceral seeding that, if left untreated, leads to death from respiratory compromise, hemorrhage from invasion of intra-abdominal blood vessels, and bowel obstruction. Substantial literature data (nearly 100 publications) confirm that this tumor model has pathogenesis and metastatic properties similar to those of human ovarian cancer.
Mice received IP implants of approximately 2.4×10^8 OVCAR-3 cells/mouse isolated from fresh OVCAR-3 mouse ascites. Cell viability was measured before and after injection, and was ≧90%. Four days after tumor cells were implanted, the mice received SQ transponders and were randomized via a lottery into four groups: NT—untreated controls that received IP injection of PBS; 7b group—receiving IP doses of the 7b diastereomeric mixture in PBS (average 0.4 mCi/mouse (14.8 MBq)); 6b group—receiving IP doses of the 6b diastereomeric mixture in PBS (average dose 0.36 mCi/mouse (13.3 MBq)); and ^125IUdR group—receiving IP doses of ^125IUdR (average 0.43 mCi/mouse (15.9 MBq)) in PBS. Mice were monitored three times per week.
Mice in the 6b group received 0.22 mCi (8.1 MBq) 6b diastereomeric mixture on day 27; and on day 28 mice in ^125IUdR group were treated with additional 0.2 mCi (7.4 MBq) ^125IUdR. Slight differences in the dosing schedule and the administered doses are because of the required large quantities of the compounds. For these experiments, ˜20 mCi of no-carrier added and radiochemically pure compounds were required. Each agent was purified on the analytical reversed phase HPLC column. The use of preparative columns in this case is impractical because the products are recovered in large volumes of acetonitrile-containing solvent that must be evaporated to dryness before the use in mice.
Overall, mice in the 7b group were treated with an average of 0.58 mCi (21.5 MBq) 7b diastereomeric mixture; mice in the 6b group were treated with an average of 0.58 mCi (21.5 MBq) 6b diastereomeric mixture, and mice in the ^125IUdR group were treated with an average of 0.63 mCi (23.3 MBq) ^125IUdR.
The therapy was terminated 7 weeks after the first dosing. Mice were sacrificed for the biodistribution study. Blood and solid tumor were taken for the evaluation of their radioactive content. The peritoneal cavity was lavaged with 2-mL aliquots of PBS, and PBS wash and ascites were collected. One mL of the ascites suspension with cancer cells was taken for gamma counting. The rest of the abdominal fluid was centrifuged and 0.5 mL of the supernatant was reserved for gamma counting. The weight of the cell pellet and the supernatant were determined.
Two weeks after the first dose of radiolabeled compounds, the whole body radioactivity was measured to determine to what extent the additional doses of the compounds may increase the radiation burden and therefore may be detrimental to the animal health (FIG. 11B). The absolute amounts were low and ranged from […] for the 6b group to […] in the 7b group. […]

[2] = system: U-87 human glioblastoma cells; assay: Clonogenic assay in U-87 cells; type: cell-based; details: 24 h treatment at 0.5 to 5 μCi/mL; 100 and 500 cells/flask; monitored 7 weeks
Experimental: U-87 cells were plated for 24 h before treatment and then treated for 24 h with concentrations of 6b fast and 6b slow ranging from 0.5 μCi/mL to 5 μCi/mL (18.5 to 185 kBq/mL). Cells were harvested, washed, and their numbers counted using a Cellometer® cell counter. Cells were diluted in fresh medium. Cells from each concentration of 6b fast and 6b slow were plated in three T25 flasks at two densities, 100 cells/flask and 500 cells/flask. Control cells were sham-treated with PBS and processed in a manner identical to cells treated with 6b. Cells were periodically examined and fresh medium was added every 5-7 days. Three weeks after plating, media was removed from the control flasks, cells were washed with 5 mL ice-cold PBS, followed by 5 mL PBS/methanol (1:1; v/v), and fixed in 5 mL methanol for 10 minutes. The methanol was discarded and flasks were left open to dry for a few hours. Crystal violet (5 mL; 0.25% in 1:1 PBS/methanol) was added to each flask to stain the cells. After approximately 10 min, the dye was removed and flasks were rinsed first with tap water followed by distilled water and were left to dry. […] This finding indicates the extraordinarily effective killing of U-87 cells by 6b.

[3] = system: U-87 human glioblastoma cells; assay: Cell survival of U-87 human glioblastoma cells after treatment; type: cell-based; details: 24 h exposure, concentration-dependent survival (FIG. 24)
Experimental: U-87 MG cell line is an epithelial cell line derived from a grade IV glioblastoma resected from the brain of a patient. U-87 cells were plated in four flasks for each isomer and allowed to attach for 24 h. The compounds 6b fast and 6b slow were added to U-87 cells at […] (37 kBq/mL). Cells were incubated with the radioactive compounds for 24 h and the radioactive medium was removed. Cells were washed twice with fresh, nonradioactive medium and trypsinized. After appropriate dilutions in full growth medium, cells were re-plated in fresh medium (n=4 per compound). After 96 hours in culture, cells were harvested and their numbers counted using a Cellometer® disposable cell counting chamber (Nexcelom Bioscience, Lawrence, Mass.). Four flasks used as controls were sham-treated with a volume of PBS used to dissolve radioactive compounds. The control flasks were processed as described for the radioactive compound-treated cells. […] The surviving fraction is calculated as the ratio of cell number recovered from flasks treated with radioactive compounds to the cell number recovered from the control flasks. Averages and standard deviations are shown. The cell survival was also measured in a 96-well and 6-well formats.
U-87 cells were plated in 6-well plates from suspension. The compounds 6b fast and 6b slow were added with media on day 0. […] The OD was read at 560 nm. […]

[4] = system: U-87 human glioblastoma cells; assay: DNA uptake and subcellular distribution of radioactivity in U-87 cells; type: cell-based
Experimental: U-87 cells were plated in T75 flasks and allowed to attach for 24 h. Compounds 6b-fast and 6b slow were added to cells at 1 μCi/mL (37 kBq/mL) and 5 μCi/mL (185 kBq/mL). Cells were incubated with radioactive compounds from 24 h to 120 h. The radioactive medium was removed. Cells were washed twice with fresh, nonradioactive medium. Cells were trypsinized and their numbers and radioactive content determined. A similar study was also conducted in 96- and 24-well formats, which allowed more rapid analyses of several concentrations of 6b. Harvested cells were processed using NE-PER nuclear and cytoplasmic extraction reagents (Thermo Fisher Scientific, Rockford, Ill.). […] U-87 cells plated in T75 flasks and allowed to grow for 24 h. Cells were treated with […] 6b fast and 6b slow for 40 h at which time the radioactive medium was removed and replaced with fresh media. Cells were grown in fresh medium for additional 24 h and 72 h. Cells were trypsinized and DNA was extracted using the Qiagen method (Qiagen Genomic-tip 20/G; Qiagen, Valencia, Calif.).

[5] = system: U-87 human glioblastoma cells; assay: Concentration-dependent uptake by U-87 cells; type: cell-based; details: 40 h exposure, 96-well plates
Experimental: U-87 cells were plated in 96-well plates and allowed to attach for ˜48 hours. The used medium was replaced with 6b-containing medium and the cells were grown in the presence of radioactivity for 40 h. The radioactive media was removed after 40 h of exposure. Aliquots (0.05 mL) of the radioactive medium were counted in a gamma counter. Cell monolayers were washed with PBS, PBS-methanol (2 min), and fixed in methanol (10 min). Fixed cells were allowed to dry and were stained with 0.25% crystal violet (10 min). To each well 0.1 mL ethanol was added (2 h) followed by 0.1 mL 3.5 mM SDS in water. OD at 560 nm was read. Solubilized cells were transferred into gamma counter tubes to determine their radioactive content. The plate was divided into individual wells and these were also added to the gamma counter tubes. FIG. 27 illustrates the concentration-dependent uptake.

Compound	tumor uptake and retention, times higher than parent drug ^131IUdR ([1]; 24 hours after IV administration)	tumor uptake and retention, times higher than parent drug ^131IUdR ([1]; 48 hours after IV administration)	clearance of normal organs versus tumor (whole body images) ([1]; diastereomeric mixture, images 24 h, 48 h, 72 h after IV administration)	whole body retention, median (IP OVCAR-3 tumors; after 14 days)	whole body retention (IP OVCAR-3 tumors; after 14 days, value with spread in brackets)	reduction in solid tumor deposits as compared to ^125IUdR (IP OVCAR-3 tumors; diastereomeric mixtures IP, total average 0.58 mCi, 7 weeks after first dose)	tumor retention compared to ^125IUdR (IP OVCAR-3 tumors; necropsy 4 weeks after the boost dose)	colony formation [2]	cytotoxicity to U-87 cells, slow versus fast isomer [3]	cellular and nuclear uptake, slow versus fast isomer [4]	uptake by U-87 cells compared to 6b fast [5]
O=c1[nH]c(=O)n([C@H]2C[C@H](O)[C@@H](COP3(=O)OCc4ccccc4O3)O2)cc1[125I] (some centres unmarked) [Compound 6b, 5-[^125I]-Iodo-5′-O-cycloSaligenyl-2′-deoxyuridine Monophosphate]	~14 ×	~7 ×	normal organs such as liver clear the compound at a much faster rate than the tumor	1.89 % ID	1.87 (0.16) % ID	~50%	significantly higher compared to ^125IUdR	colonies were not formed			
O=c1[nH]c(=O)n([C@H]2C[C@H](O)[C@@H](COP3(=O)OCc4ccccc4O3)O2)cc1[125I] (some centres unmarked) [6b slow, 5-[^125I]-Iodo-5′-O-cycloSaligenyl-2′-deoxyuridine Monophosphate]									more cytotoxic to U-87 cells compared to the 6b fast isomer	greater overall cellular and nuclear uptake when compared to 6b fast	almost a two-fold greater uptake
